PubChem BioAssay (NCI)
“And” between values parts separate entries of the source, which are not always exact repeats. Equal values may be shown once.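 Tested at 5 concentrations; 48 h exposure; 96-well plates; endpoints linearly interpolated, else capped at highest concentration. Here, GI50 denotes the concentration required for 50% inhibition of growth. TGI is the concentration that stops growth completely.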

Assays:
Assay in all cases: NCI-60 cell line screen, 48 h
ACHN renal = tested on: ACHN renal
HCC-2998 colon = tested on: HCC-2998 colon
HCT-116 colon = tested on: HCT-116 colon
HCT-15 colon = tested on: HCT-15 colon
HS 578T breast = tested on: HS 578T breast
M14 melanoma = tested on: M14 melanoma
MALME-3M melanoma = tested on: MALME-3M melanoma
NCI-H460 lung = tested on: NCI-H460 lung
NCI/ADR-RES ovarian = tested on: NCI/ADR-RES ovarian
SF-295 CNS = tested on: SF-295 CNS
SNB-19 CNS = tested on: SNB-19 CNS
TK-10 renal = tested on: TK-10 renal
UO-31 renal = tested on: UO-31 renal
SR leukemia = tested on: SR leukemia

Row | Compound | TGI (ACHN renal) | TGI (HCC-2998 colon) [µM] | TGI (HCT-116 colon) [µM] | TGI (HCT-15 colon) [µM] | TGI (HS 578T breast) [µM] | TGI (M14 melanoma) [µM] | TGI (MALME-3M melanoma) [µM] | TGI (NCI-H460 lung) [µM] | TGI (NCI/ADR-RES ovarian) [µM] | TGI (SF-295 CNS) | TGI (SNB-19 CNS) [µM] | TGI (TK-10 renal) | TGI (UO-31 renal) [µM] | GI50 (ACHN renal) | GI50 (NCI-H460 lung) | GI50 (SF-295 CNS) | TGI (SR leukemia) [µM] | GI50 (TK-10 renal)
1 | COc1ccc2cc(/C=N\NC(=O)Nc3ccc([N+](=O)[O-])cc3)ccc2c1 | 19.8 µM | 20.1 | 16.3 | 25 | > 31.6 | > 71.4 | 22.4 | 18.3 | 20.1 | 20.7 µM | 20.1 | 14.4 µM | 18.8 |  |  |  |  | 
2 | C=CCN1C(=O)/C(=C/c2ccc(OC)cc2)N=C1SC1OC(COC(C)=O)C(OC(C)=O)C(OC(C)=O)C1OC(C)=O (stereo unspecified) | 32.3 µM and > 100 µM | > 100 | > 100 | > 100 |  | > 100 | > 100 | > 100 | > 100 | 48.8 µM and > 100 µM | > 100 | 39.6 µM and > 100 µM |  | 15.4 µM and 77.3 µM | 24.7 µM and 99.9 µM | 21 µM and 70.3 µM | > 100 | 20.2 µM and > 100 µM
3 | O=C(/C=N/O)Nc1ccc(Cl)c(I)c1 | 85.2 µM | 33.7 | 25.5 | 63.9 |  | 43.7 | 64.2 | 47.2 |  | 94.8 µM | 83.9 | > 100 µM | 33.1 |  |  |  | 61.2 | 
4 | CCN(CC)c1ccc2cc(-c3csc(C)n3)c(=O)oc2c1 | > 100 µM | > 100 | > 100 | > 100 | 67.5 | > 100 |  | > 100 |  | > 100 µM | > 100 | > 100 µM | > 100 |  |  |  | > 100 | 
5 | CC(C)(C)CN1[C@@H]2CCCC[C@H]2N(CC(C)(C)C)P1(=O)C(O)/C=C/c1ccccc1 (stereo partly specified) | 93.7 µM | 92.6 | > 100 | > 100 | 73.2 | > 100 | 87.7 | 85.3 | > 100 | > 100 µM | > 100 | > 100 µM | > 100 |  |  |  |  | 
6 | O=[N+]([O-])c1cc(Cl)ccc1S(=O)(=O)c1ccc(Cl)cc1[N+](=O)[O-] | 29.7 µM |  | 29.2 | 33 |  | 30.4 | 26.6 | 31.5 |  | 29 µM | 31.4 | 31.5 µM | 30.9 |  |  |  | 40.3 | 
7 | CC1CN=C(NS(=O)(=O)c2cc(C(=O)Nc3ccccc3)c(Cl)cc2S)NN1 (stereo unspecified) | > 100 µM | > 100 | > 100 | > 100 |  | > 100 | 77 | > 100 | > 100 | > 100 µM | > 100 | > 100 µM | > 100 |  |  |  | > 100 | 
8 | O=C1COc2cc3c(cc2N1)SCCC(=O)N3 |  | > 100 | > 100 |  |  | > 100 | > 100 |  |  | > 100 µM | > 100 | > 100 µM | > 100 |  |  |  | > 100 | 
9 | CCOC(=O)CNC(=O)CNC(=O)CNC(=O)CNNc1c(OCc2ccccc2)c(=O)c1=O | > 100 µM | > 100 | > 100 | > 100 | > 100 | > 100 | > 100 |  | > 100 |  | > 100 | > 100 µM | > 100 |  |  |  |  | 
10 | OCCSCC/C(=N\N=C(/CCSCCO)c1ccccc1)c1ccccc1 | > 100 µM | > 100 |  | > 100 |  | > 100 | > 100 | > 100 |  | > 100 µM | > 100 | > 100 µM | > 100 |  |  |  |  | 
11 | COc1cc(/C=C2\C(=O)N(c3ccc(NC(C)=O)cc3)C(c3ccccc3)S2(=O)=O)cc(OC)c1OC (stereo unspecified) | > 100 µM | > 100 | > 100 | > 100 |  | > 100 | > 100 | > 100 | > 100 | > 100 µM | > 100 | > 100 µM | > 100 |  |  |  | > 100 | 
12 | O=C(Nc1ccccc1[N+](=O)[O-])C(=O)C(C(=O)c1ccccc1-c1ccccc1)C1OC(=O)c2ccccc21 (stereo unspecified) | > 100 µM | 28.2 | 38.4 | 30 |  | 28.9 | 29.9 | 30.7 |  | 39.3 µM | 33.2 | 47.1 µM | 29.8 |  |  |  | 49 | 
13 | CC(C)(C)Cc1cc(O)ccc1O | > 100 µM | > 100 | > 100 | > 100 |  | > 100 | > 100 | > 100 | 94.5 | > 100 µM | > 100 | > 100 µM | > 100 |  |  |  | > 100 | 
14 | CCOC(=O)C(C)c1nc2cc(C(F)(F)F)ccc2[nH]c1=O (stereo unspecified) | > 100 µM | > 100 | > 100 | > 100 | > 100 | > 100 | > 100 | > 100 | > 100 | > 100 µM | > 100 | > 100 µM | > 100 |  |  |  |  | 
15 | Cn1nc(S(N)(=O)=O)s/c1=N/S(=O)(=O)c1ccc(N)cc1 | > 100 µM | > 100 |  | > 100 |  | > 100 | > 100 | > 100 | > 100 | > 100 µM | > 100 | > 100 µM | > 100 |  |  |  |  | 
16 | COc1ccc(-c2cc(=O)c3ccc(F)cc3[nH]2)cc1 | > 100 µM | > 100 | > 100 |  |  | > 100 | > 100 | > 100 |  | > 100 µM | > 100 | > 100 µM | > 100 |  |  |  | > 100 | 
17 | O=C1OC(C2Cc3ccc4c(c3C2=O)CCCC4)c2ccccc21 (stereo unspecified) | > 100 µM | 94.6 | > 100 | > 100 | 82 | > 100 | > 100 | > 100 | > 100 | > 100 µM | > 100 | > 100 µM | > 100 |  |  |  |  | 
18 | C/C(=C(/C)c1cc[n+](C)cc1)c1cc[n+](C)cc1 | > 75 µM |  | > 75 | > 75 |  | > 75 | > 75 | > 75 |  | > 75 µM | > 75 | > 75 µM | > 75 |  |  |  |  | 
